The values below come from patent US6888015B2, “Sphingolipid synthesis inhibitor” (Japan Science and Technology Agency, priority 2001, dated 2005).

The subject of one series is CHO cells. Briefly: Viability of cells (MTT). In kind it is cell-based, Chinese hamster. Particulars: 10 μM; data not shown. As for the experimental part: CHO cells are seeded at a density of 2.0×10^4 per one hole of a 48-hole culture plate in 500 μL of F12 medium containing 10% NBS, and cultivated at 33[…] overnight. Then, the medium is changed to 500 μL of Nutridoma medium containing various concentrations of HPA compounds at 33° C. for 24 hours, and the viability of cells are determined using MTT as disclosed in Document 9.

Another series deals with SM synthase. Briefly: SM synthase enzyme assay, CHO membrane fraction. In kind it is biochemical, Chinese hamster.
Series [1] has as its target T1, serine palmitoyltransferase (Cricetulus griseus, UniProt O54694+O54695).
T1 construct: Membrane fraction prepared from CHO cells is used as an enzyme source; endogenous in cells; host or cells: CHO cells, membrane fraction
T1 sequence (O54695 1-473): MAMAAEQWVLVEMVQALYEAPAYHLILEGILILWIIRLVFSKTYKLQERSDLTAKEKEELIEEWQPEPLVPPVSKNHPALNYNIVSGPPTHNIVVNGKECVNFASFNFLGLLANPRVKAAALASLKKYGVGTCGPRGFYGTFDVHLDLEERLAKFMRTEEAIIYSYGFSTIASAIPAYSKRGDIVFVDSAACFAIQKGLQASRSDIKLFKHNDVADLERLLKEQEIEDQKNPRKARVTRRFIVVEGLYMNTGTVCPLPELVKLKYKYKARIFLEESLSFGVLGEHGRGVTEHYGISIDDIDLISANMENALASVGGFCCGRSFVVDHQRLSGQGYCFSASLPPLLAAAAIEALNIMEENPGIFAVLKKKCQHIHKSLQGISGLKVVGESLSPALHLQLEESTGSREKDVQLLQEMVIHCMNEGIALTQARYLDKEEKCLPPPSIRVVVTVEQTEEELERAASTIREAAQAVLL
T1 sequence (O54694 1-560): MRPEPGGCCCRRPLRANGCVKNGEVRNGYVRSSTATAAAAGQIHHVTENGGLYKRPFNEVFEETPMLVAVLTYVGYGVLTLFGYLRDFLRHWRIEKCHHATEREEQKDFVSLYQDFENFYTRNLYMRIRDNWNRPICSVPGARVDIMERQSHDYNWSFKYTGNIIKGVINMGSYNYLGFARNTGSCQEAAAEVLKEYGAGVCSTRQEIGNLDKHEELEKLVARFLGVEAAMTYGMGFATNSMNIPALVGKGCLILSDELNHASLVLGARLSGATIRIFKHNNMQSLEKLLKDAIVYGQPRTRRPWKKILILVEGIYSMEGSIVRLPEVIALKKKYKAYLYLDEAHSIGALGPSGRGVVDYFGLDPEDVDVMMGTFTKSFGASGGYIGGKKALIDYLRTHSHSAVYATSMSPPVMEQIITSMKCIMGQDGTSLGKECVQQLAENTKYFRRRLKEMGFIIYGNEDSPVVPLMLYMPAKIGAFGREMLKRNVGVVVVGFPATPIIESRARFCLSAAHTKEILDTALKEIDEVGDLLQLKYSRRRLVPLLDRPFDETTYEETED
Briefly: Serine palmitoyltransferase activity, CHO membrane fraction. The format is biochemical, Chinese hamster. Particulars: 20 μM; data not shown. As for the experimental part: Membrane fraction prepared from CHO cells is used as an enzyme source.
Serine palmitoyltransferase activity is determined by the method disclosed in Document 7, and sphingosine N-acyl transferase activity is determined by a modification of the method disclosed in Document 7.

Series [2] has as its system SM synthesis in BFA-treated cells. Briefly: [14C]serine labeling in BFA-treated cells (ER and Golgi merged). Particulars: 1 μM; cells treated with 1 μg/mL BFA (FIG. 5). In kind it is cell-based, Chinese hamster. As for the experimental part:
For the metabolic labeling by [^14C] serine in BFA-treated cells, the cells are preincubated with 1 μg/mL BFA in Nutridoma medium at 33° C. for 30 minutes, then, treated with or without 1 μM HPA-12 in the presence of 1 μg/mL BFA at 4° C. for 15 minutes prior to addition of [^14C] serine.

Series [3] deals with transport of Cer from the ER to the Golgi apparatus. Briefly: Intracellular redistribution and metabolism of C5-DMB-Cer. The format is cell-based, Chinese hamster. As for the experimental part:
After CHO cells seeded in 60-mm dishes are cultured overnight, said CHO cells are labeled with 1 μM C5-DMB-Cer in 1.5 mL of Nutridoma medium at 4° C. for 30 minutes. Then, after obtained said cells are washed 3 times with F12 medium, said cells are incubated in Nutridoma medium in the presence or absence of 2.5 μM HPA-12 for 15 minutes at 4° C., and then further incubated at 33° C. for various periods of time.
After washed with PBS, the chased cells are lysed with 0.1% SDS as mentioned above. The lipids extracted from cell lysate are separated by high performance TLC with a solvent of chloroform/methanol/H2O (volume ratio, 65:25:4). Quantitative measurement of C5-DMB-SM and C5-DMB-Cer are performed by scraping gel from TLC plates, extracting by chloroform/methanol/H2O (volume ratio, 1:2:0.8), and by measuring DMB fluorescence (excitation wave length 480 nm, emission wave length 515 nm) of the extracted product.
After CHO cells grown on the glass coverslip (22-mm diameter) in 35 mm dishes are incubated in F12 medium containing 1 μM C5-DMB-Cer at 4[…] for 30 minutes for pulse label, washed three times with 1 mL of F12 medium, and incubated in 1 mL of Nutridoma medium in the presence or absence of 2.5 μM HPA-12 at 4° C. for 15 minutes. Then, the pulse-labeled cells are incubated at 33° C. for 15 minutes for chase, washed with PBS containing 0.125% glutaraldehyde at 4° C. for 5 minutes. […]

SMILES strings stand for the structures.

As to `CCCCCCCCCCCC(=O)NC(CO)CC(O)c1ccccc1` (centres unmarked) [HPA-12, N-(3-hydroxy-1-hydroxymethyl-3-phenylprol)dodecaneamide], the “toxicity to CHO cells” value with CHO cells is “highly toxic”. Besides, in the series on SM synthase (20 μM, substrate C6-NBD-Cer), the “C6-NBD-SM formed (SM synthase activity)” value was 168.1 ± 1.7 pmol/mg protein/10 minutes and the “inhibition of SM synthase” value is given as “Neither of SM synthase nor GlcCer synthase is inhibited”. Further, the “inhibition of SM synthase activity” value with SM synthase (substrate C5-DMB-Cer, data not shown) is reported as “not observed”. Also, in series [1], the “activity of serine palmitoyltransferase” value was “does not affect”. In addition, the “formation of [14C]serine-derived SM” value in series [2] is on record as “no longer inhibits”. Further, the “accumulation of DMB-fluorescence to the perinuclear Golgi region vs untreated control” value in series [3] (2.5 μM, chase at 33° C. for 15 minutes) is recorded as “clearly lower”. Further, the “inhibition of conversion of C5-DMB-Cer to C5-DMB-SM” value in series [3] (HPA-12 treated cells, data not shown) was 50%.
